Results from patent US6667313B1, “8-substituted-6-triflouromethyl-9-pyrido [3,2-G] quinoline compounds as androgen receptor modulators” (Ligand Pharmaceuticals Inc., priority 1999, dated 2003).
Where two headings read alike, the source gives them in different places.

Tests used:
[1] = target: T1, human AR (Homo sapiens, UniProt P10275); assay: AR whole cell competitive binding assay (3H-DHT), COS-1 cells
T1 sequence (P10275 1-920): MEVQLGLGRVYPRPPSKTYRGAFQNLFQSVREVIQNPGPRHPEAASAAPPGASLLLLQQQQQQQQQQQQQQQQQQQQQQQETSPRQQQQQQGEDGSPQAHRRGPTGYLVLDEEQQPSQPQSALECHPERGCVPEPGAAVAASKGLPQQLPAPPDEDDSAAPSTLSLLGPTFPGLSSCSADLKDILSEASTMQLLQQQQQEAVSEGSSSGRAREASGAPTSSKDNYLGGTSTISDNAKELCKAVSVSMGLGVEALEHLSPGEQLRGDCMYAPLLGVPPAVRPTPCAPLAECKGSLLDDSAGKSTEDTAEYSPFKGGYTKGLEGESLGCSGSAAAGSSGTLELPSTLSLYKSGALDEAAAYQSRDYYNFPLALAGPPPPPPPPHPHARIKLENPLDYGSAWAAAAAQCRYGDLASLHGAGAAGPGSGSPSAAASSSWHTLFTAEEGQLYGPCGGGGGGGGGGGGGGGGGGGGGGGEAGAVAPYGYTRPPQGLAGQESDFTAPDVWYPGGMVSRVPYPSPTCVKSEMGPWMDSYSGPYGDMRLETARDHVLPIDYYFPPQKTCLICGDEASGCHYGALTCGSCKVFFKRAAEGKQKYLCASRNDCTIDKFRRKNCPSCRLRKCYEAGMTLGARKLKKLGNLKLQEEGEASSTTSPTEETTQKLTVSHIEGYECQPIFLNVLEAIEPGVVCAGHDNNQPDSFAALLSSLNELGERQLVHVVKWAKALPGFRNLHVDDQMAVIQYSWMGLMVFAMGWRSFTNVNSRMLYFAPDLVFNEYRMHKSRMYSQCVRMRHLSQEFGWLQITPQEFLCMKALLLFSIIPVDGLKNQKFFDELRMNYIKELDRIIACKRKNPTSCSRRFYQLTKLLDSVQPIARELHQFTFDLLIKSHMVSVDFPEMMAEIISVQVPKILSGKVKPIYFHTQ
Method: AR Binding: For the whole cell binding assay, COS-1 cells in 96-well microtiter plates containing DMEM-10% FBS were transfected as described above with the following plasmid DNA: pRShAR (2 ng/well), pRS-β-Gal (50 ng/well) and pGEM (48 ng/well). Six hours after transfection, media was removed, the cells were washed with PBS and fresh media was added. The next day, the media was changed to DMEM-serum free to remove any endogenous ligand that might be complexed with the receptor in the cells.
Three replicates were used for each sample. […] The remaining media was removed, the cells were washed three times with PBS to remove unbound ligand, and cells were lysed with a Triton X-100-based buffer.
For the saturation analyses, the difference between the total binding and the nonspecific binding, normalized by the β-Gal rate, was defined as specific binding.
After correcting for non-specific binding, IC50 values were determined. […] The IC50 value was determined graphically from a log-logit plot of the data. The Ki values were determined by application of the Cheng-Prusoff equivuation to the IC50 values, the labeled ligand concentration and the Kd of the labeled ligand.

[2] = target: T1, human AR; assay: Co-transfection assay, AR antagonist, CV-1 cells (in presence of DHT); format: cell-based; conditions: for AR Antagonist CV-1 Cells Efficacy (%): percent maximal inhibition, DHT at EC50
Description: (§1) The reporter plasmid, MTV-LUC, contains the cDNA for firefly luciferase (LUC) under control of themouse mammary tumor virus (MTV) long terminal repeat, a conditional promoter containing an androgen response element. See e.g., Berger et al. supra. In addition, pRS-β-Gal, coding for constitutive expression of E. coli β-galactosidase (β-Gal), was included as an internal control for evaluation of transfection efficiency and compound toxicity.
(§2) Three to four replicates were used for each sample.
(§3) After 40 hours, the cells were washed with PBS, lysed with a Triton X-100-based buffer and assayed for LUC and β-Gal activities using a luminometer or spectrophotometer, respectively. For each replicate, the normalized response (NR) was calculated as:
(§4) where β-Gal rate=β-Ga·1×10^−5/β-Gal incubation time.

[3] = target: T1, human AR; assay: Co-transfection assay, AR agonist, CV-1 cells; format: cell-based; conditions: for AR Agonist CV-1 Cells Efficacy (%): percent maximal response relative to reference agonist DHT
Description: as §1, §2, §3, §4

Row | SMILES | Ki [1] | IC50 [2] | AR Antagonist CV-1 Cells Efficacy (%) [2] | AR Agonist CV-1 Cells Efficacy (%) [3] | EC50 [3] | Ki ([1]; COS-1 cells, 1 nM 3H-DHT, Cheng-Prusoff, read-out: AR Binding KI) | IC50 ([2]; read-out: AR Antagonist CV-1 Cells Potency)
1 | Cc1c2c(cc3c(C(F)(F)F)c(F)c(F)nc13)C(C)CC(C)(C)N2 (centres unmarked) [Compound 115, 7,8-Difluoro-1,2,3,4-tetrahydro-2,2,4,10-tetramethyl-6-trifluoromethyl-9-pyrido[3,2-g]quinoline] | > 1 µM | 1.14 µM | 26% | 0% |  |  | 
2 | CC1(C)CCc2cc3c(C(F)(F)F)c(F)c(Br)nc3cc2N1 [Compound 119, 8-Bromo-7-fluoro-1,2,3,4-tetrahydro-2,2-dimethyl-6-trifluoromethyl-9-pyrido[3,2-g]quinoline] | 0.091 ± 0.068 µM | 0.047 ± 0.027 µM | 73 ± 7% | 6% |  |  | 
3 | CCC1CCNc2cc3nc(Cl)c(F)c(C(F)(F)F)c3cc21 (racemic) [Compound 109, (R/S)-8-Chloro-4-ethyl-7-fluoro-1,2,3,4-tetrahydro-6-trifluoromethyl-9-pyrido[3,2-g]guinoline] | 0.119 ± 0.065 µM | 0.039 ± 0.023 µM | 51 ± 9% | 35 ± 12% | 0.089 ± 0.026 µM |  | 
4 | CCC1CCNc2cc3nc(SC)cc(C(F)(F)F)c3cc21 (racemic) [Compound 142, (R/S)-4-Ethyl-1,2,3,4-tetrahydro-8-methylthio-6-trifluoromethyl-9-pyrido[3,2-g]quinoline] | 0.307 µM | 0.131 ± 0.064 µM | 60 ± 7% | 30 ± 12% | 0.221 ± 0.108 µM |  | 
5 | Cc1ccc(C(=O)N2c3cc4c(cc3C(C(F)(F)F)=CC2C#N)CCC(C)(C)N4)cc1 (racemic) [Compound 132, (R/S)-8-Cyano-1,2,3,4,8,9-hexahydro-2,2-dimethyl-9-p-toluoyl-6-trifluoromethyl-9-pyrido[3,2-g]quinoline] |  |  | 89% |  |  | 0.863 µM | 0.147 µM
6 | C[S+]([O-])c1nc2cc3c(cc2c(C(F)(F)F)c1F)CCC(C)(C)N3 (racemic) [Compound 137, (R/S)-7-Fluoro-1,2,3,4-tetrahydro-2,2-dimethyl-6-trifluoromethyl-8-methylsulfinyl-9-pyrido[3,2-g]quinoline] | > 1 µM | 1.34 µM | 84% | 10% |  |  | 
7 | CC1(C)CCc2cc3c(cc2N1)N(C(=O)c1ccccc1)C(C#N)C=C3C(F)(F)F (racemic) [Compound 131, (R/S)-9-Benzoyl-8-cyano-1,2,3,4,8,9-hexahydro-2,2-dimethyl-6-trifluoromethyl-9-pyrido[3,2-g]quinoline] | > 1 µM | 0.063 µM | 91% | 0% |  |  | 
8 | CC1(C)CCc2cc3c(C(F)(F)F)c(F)cnc3cc2N1 [Compound 126, 7-Fluoro-1,2,3,4-tetrahydro-2,2-dimethyl-6-trifluoromethyl-9-pyrido[3,2-g]quinoline] | 0.058 µM | 0.181 ± 0.073 µM | 93 ± 4% | 3 ± 5% |  |  | 
9 | CCC1CCNc2cc3nc(F)cc(C(F)(F)F)c3cc21 (racemic) [Compound 116, (R/S)-4-Ethyl-8-fluoro-1,2,3,4-tetrahydro-6-trifluoromethyl-9-pyrido[3,2-g]quinoline] | 0.005 µM |  | 0% | 60 ± 4% | 0.037 ± 0.009 µM |  | 
10 | CCC1CCNc2cc3nc(C(F)(F)F)cc(C(F)(F)F)c3cc21 (racemic) [Compound 149, (R/S)-4-Ethyl-1,2,3,4-tetrahydro-6,8-di(trifluoromethyl)-9-pyrido[3,2-g]quinoline] | 0.301 µM | 0.117 ± 0.031 µM |  |  |  |  | 
11 | CCC1CCNc2cc3nc([S+](C)[O-])cc(C(F)(F)F)c3cc21 (racemic) [Compound 143, (R/S)-4-Ethyl-1,2,3,4-tetrahydro-8-methylsulfinyl-6-trifluoromethyl-9-pyrido[3.2-g]guinoline] | 0.034 µM | 4.69 µM | 59% | 37 ± 9% | 0.033 ± 0.003 µM |  | 
12 | CCC1CCNc2cc3nc(Br)cc(C(F)(F)F)c3cc21 (racemic) [Compound 121, (R/S)-8-Bromo-4-ethyl-1,2,3,4-tetrahydro-6-trifluoromethyl-9-pyrido[3,2-g]quinoline] | 0.055 µM |  | 8 ± 12% | 53 ± 15% | 0.022 ± 0.014 µM |  | 
13 | Cc1c2c(cc3c(C(F)(F)F)c(F)c(Cl)nc13)C(C)CC(C)(C)N2 (centres unmarked) [Compound 106, 8-Chloro-7-fluoro-1,2,3,4-tetrahydro-2,2,4,10-tetramethyl-6-trifluoro-methyl-9-pyrido[3,2-g]quinoline] | > 1 µM | 0.55 ± 0.015 µM | 77 ± 6% | 4 ± 2% |  |  | 
14 | CCC1CCNc2cc3nc(C#N)cc(C(F)(F)F)c3cc21 (racemic) [Compound 129, (R/S)-8-Cyano-4-ethyl-1,2,3,4-tetrahydro-6-trifluoromethyl-9-pyrido[3,2-g]quinoline] | 0.021 µM | 0.015 ± 0.005 µM | 56 ± 25% |  |  |  | 
15 | CCC1CCN(C)c2cc3nc(C#N)cc(C(F)(F)F)c3cc21 (racemic) [Compound 130, (R/S)-8-Cyano-4-ethyl-1,2,3,4-tetrahydro-1-methyl-6-trifluoromethyl-9-pyrido[3,2-g]quinoline] | 0.787 µM | 0.782 ± 0.546 µM | 89 ± 1% | 2% |  |  | 
16 | CCC1CCNc2cc3nc(Cl)cc(C(F)(F)F)c3cc21 (racemic) [Compound 108, (R/S)-8-Chloro-4-ethyl-1,2,3,4-tetrahydro-6-trifluoromethyl-9-pyrido[3,2-g]guinoline] | 0.081 ± 0.013 µM | 0.05 ± 0.027 µM | 28 ± 8% | 36 ± 5% | 0.073 ± 0.012 µM |  | 
17 | CCC1CCNc2cc3nccc(C(F)(F)F)c3cc21 (racemic) [Compound 125, (R/S)-4-Ethyl-1,2,3,4-tetrahydro-6-trifluoromethyl-9-pyrido[3,2-g]quinoline] | 0.093 µM | 0.056 ± 0.017 µM | 93 ± 1% | 9 ± 7% |  |  | 
18 | CC1(C)CCc2cc3c(C(F)(F)F)c(F)c(F)nc3cc2N1 [Compound 113, 7,8-Difluoro-1,2,3,4-tetrahydro-2,2-dimethyl-6-trifluoromethyl-9-pyrido[3,2-g]quinoline] | 0.152 µM | 0.5 µM | 37% | 12% |  |  | 
19 | CC1(C)CCc2cc3c(C(F)(F)F)c(F)c(Cl)nc3cc2N1 [Compound 107, 8-Chloro-7-fluoro-1,2,3,4-tetrahydro-2,2-dimethyl-6-trifluoromethyl-9-pyrido[3,2-g]quinoline] | 0.103 µM | 0.017 ± 0.003 µM | 61 ± 8% | 29% | 1.03 µM |  | 
